In patent publication US12350273B2, “Treatment of SMA” (Hoffmann-La Roche Inc., priority 2017, dated 2025):
Read-outs that look alike come from different tables or passages of the source.

Legend:
[1] = 39-week monkey toxicity study: toxicokinetics in plasma; type: in vivo, cynomolgus monkeys (Macaca fascicularis); details: for AUC(0-t) / Cmax: cynomolgus monkey, plasma
Method: Blood samples for toxicokinetics (nominally 0.5 mL) were taken from all test article-treated animals on Days 1, 12 (Week 2), 26 (Group 4 only), 57 (Week 9), 92 (Week 14), 180 (Week 26) and 267 (Week 39) of the dosing phase at the following time points: • 0 (predose), 1, 3, 7 and 24 hours postdose
An additional sample was taken at 72 hours postdose on Day 12 (i.e. Day 15) from all Group 4 animals.
Samples were taken from the femoral vein/artery. Each blood sample was mixed gently by hand then placed on crushed wet ice until centrifugation at 2300 g for 10 minutes at approximately 4° C. The resultant plasma was separated, split into two uniquely labelled clear polypropylene tubes and frozen at <−50° C. (nominally −80° C.). One sample was transported frozen on dry ice to the Principal Investigator for analysis, and the other was retained at Covance.

[2] = system: FOXM1B/C transcript variants; experiment: FOXM1B/C mRNA expression in human iPSCs (RT-qPCR); type: cell-based; details: 24 h
Method: FIG. 5A-FIG. 5B: Effect of RO7034067 on FOXM1 mRNA expression levels in human and Cynomolgus monkey iPSCs • Cells were treated with RO7034067 for 24 hours, and FOXM1 B/C transcript variants were analyzed by RT-PCR. Data represent means±SEM of 3 repetitions and are expressed as fold change vs. controls. IC50 values are indicated. FIG. 5A. human iPSCs. FIG. 5B. Cynomolgus monkey iPSCs
Human iPSCs (hIPS_Neo_Clone_1) were cultivated in mTeSR1 (Stem Cell Technologies) as standard medium and Cynomolgus monkey iPSCs (cips_54-1285_cFIB_Clone_8) in MT medium supplemented with 10 ng/ml ActivinA and 15 ng/ml FGF2.
For gene expression profiling, stem cells were detached with Accutase (Stem Cell Technologies) and plated in 12 well plates coated with Matrigel (BD Biosciences) in the respective standard medium supplemented with 10 μM Rock inhibitor Y-27632 (Sigma-Aldrich). In order to obtain enough RNA, monkey stem cells were seeded at 15000 cells/cm2 and human stem cells were seeded at 40000 cells/cm2 24 h prior to treatment. Thereafter stem cells were treated for 24 h with serial dilutions (1:5) of test items in fresh, pre-warmed medium in a concentration range from 0.64 nM till ˜10 μM. To stop the experiment, cells were lysed in QiaGen's lysis buffer RLT with beta-mercaptoethanol.
Human and Cynomolgus monkey mRNA expression was measured with customized primer and FAM fluorescently-labeled Universal Probe Library (UPL) probes from Roche or probes from Microsynth containing a 5′ FAM label and a 3′ terminal BlackHole Dark Quencher 1 (BHQ1). The sequences of the primer and FAM labeled probes are listed as follows:
For quantitative Real-Time-PCR, cells cultivated in a 12 well plate and treated with Roche-compounds for 24 h were lysed in 500 ul/well of QiaGen's lysis buffer RLT with beta-mercaptoethanol. Total RNA was extracted with the RNeasy Mini kit combined with DNase treatment on a solid support. RNA integrity was controlled by using Nanodrop absorption spectroscopy and microfluidic capillary array electrophoresis profiles from an Agilent Bioanalyzer
2100. Between 300 ng to 800 ng of total RNA were reverse transcribed with oligo-dT primer and spiked MS2 RNA at 10 ng/uL final concentration using the Transcriptor First Strand cDNA Synthesis Kit (Roche Applied Science #04379012001) following the manufacturer's recommended protocol. The quantitative PCR was performed on a LightCycler 480 qPCR machine using 67.5 ng total RNA derived cDNA as input in a 20 μl mixture containing 1× LightCycler 480 Probes Master, 0.4 μM forward and reverse primers, and 0.2 μM FAM labeled hydrolysis probe. The temperature program consisted of pre-incubation at 95° C. for 10 min, followed by 50 cycles of amplification (95° C. for 10 s, 60° C. for 30 s, 72° C. for 5 s). Negative control reactions were conducted in the absence of cDNA template to confirm absence of cDNA contamination in the master mix. Measurements of Ct (cycle threshold)-values were performed for each sample-mRNA combination. Using the 2-ΔΔCt method (Livak K J et al. Method. Methods. 2001; 25(4):402-8), the data are presented as the fold change in gene expression normalized to an endogenous reference gene and relative to the untreated control. To derive individual ΔCt values, the Ct value for each target mRNA of each sample was normalized to the Ct value of the endogenous reference mRNA of GAPDH (glyceraldehyde-3-phosphate dehydrogenase). The […] was calculated by subtracting the ΔCt value of the vehicle-control group from the respective ΔCt value of each treatment group. Resultant expression ratios (2-ΔΔCt) mirrored treatment-related mRNA expression changes versus vehicle-controls. […] The model to derive the IC50 assumes that the dose response curves has a standard slope, equal to a Hill slope (or slope factor) of −1.0. Model equation: Y=Bottom+(Top-Bottom)/(1+10^((X-Log IC50))); with Y being the response data and X being log 10 concentrations in μM.

[3] = system: MADD gene transcript; experiment: 2-week dose-range finding toxicity study in cynomolgus monkey: MADD splicing in spleen, duodenum, testis; type: in vivo; details: cynomolgus monkey 2 weeks, highest dose (0.75, 1.5, 3 and 6 mg/kg/day tested); all three organs
Method: Similar investigations were integrated into the 2-week dose-range finding toxicity study conducted in the cynomolgus monkey with RO7034067. For this purpose, spleen, duodenum, and testis were analyzed from the animals treated with 0.75, 1.5, 3 and 6 mg/kg/day. […] Since secondary pharmacology was detected in spleen, this organ was further analyzed for transcriptome-wide mRNA splicing or expression changes by RNA-sequencing. […] Furthermore, a dose-dependent trend for pathway expression changes was not detected. Therefore, while the few changes in RO7034067-mediated alternative transcript splicing are consistent with in vitro data and those of other SMN2 splicing modifiers, they seem not to fundamentally affect biological pathways or processes under the conditions of this study.

Cc1cn2nc(-c3cc(=O)n4cc(N5CCNC6(CC6)C5)ccc4n3)cc(C)c2n1 [RO7034067, 7-(4,7-diazaspiro[2.5]octan-7-yl)-2-(2,8-dimethylimidazo[1,2-b]pyridazin-6-yl)pyrido[1,2-a]pyrimidin-4-one]
gender differences for AUC(0-24h) or Cmax ([1]; any dose level, 39-week dosing phase): no relevant gender differences | dose dependence of AUC(0-24h) ([1]; between 1.5 and 5 mg/kg/day on each evaluation day): roughly dose-proportional increase | AUC(0-t) ([1]; female, Day 12, 7.5 mg/kg/day oral, read-out: AUC(0-24h), female (mean)): 10200 ng·h/mL | Cmax ([1]; female, Day 12, 7.5 mg/kg/day oral, read-out: Cmax, female (mean)): 1070 ng/mL | Cmax ([1]; female, Day 267 (Week 39), 1.5 mg/kg/day oral, read-out: Cmax, female (mean)): 396 ng/mL | AUC(0-t) ([1]; female, Day 267, 1.5 mg/kg/day oral, read-out: AUC(0-24h), female (mean)): 2060 ng·h/mL | AUC(0-t) ([1]; female, Day 267, 3 mg/kg/day oral, read-out: AUC(0-24h), female (mean)): 4850 ng·h/mL | Cmax ([1]; female, Day 267, 3 mg/kg/day oral, read-out: Cmax, female (mean)): 973 ng/mL | AUC(0-t) ([1]; female, Day 267, 5 mg/kg/day oral (Group 4, 7.5/5), read-out: AUC(0-24h), female (mean)): 6470 ng·h/mL | Cmax ([1]; female, Day 267, 5 mg/kg/day oral (Group 4, 7.5/5), read-out: Cmax, female (mean)): 1160 ng/mL | AUC(0-t) ([1]; male, Day 12, 7.5 mg/kg/day oral, read-out: AUC(0-24h), male (mean)): 11200 ng·h/mL | Cmax ([1]; male, Day 12, 7.5 mg/kg/day oral, read-out: Cmax, male (mean)): 1020 ng/mL | Cmax ([1]; male, Day 267 (Week 39), 1.5 mg/kg/day oral, read-out: Cmax, male (mean)): 414 ng/mL | AUC(0-t) ([1]; male, Day 267, 1.5 mg/kg/day oral, read-out: AUC(0-24h), male (mean)): 1870 ng·h/mL | AUC(0-t) ([1]; male, Day 267, 3 mg/kg/day oral, read-out: AUC(0-24h), male (mean)): 4880 ng·h/mL | Cmax ([1]; male, Day 267, 3 mg/kg/day oral, read-out: Cmax, male (mean)): 1000 ng/mL | AUC(0-t) ([1]; male, Day 267, 5 mg/kg/day oral (Group 4, 7.5/5), read-out: AUC(0-24h), male (mean)): 5880 ng·h/mL | Cmax ([1]; male, Day 267, 5 mg/kg/day oral (Group 4, 7.5/5), read-out: Cmax, male (mean)): 701 ng/mL | Mean FOXM1B/C relative mRNA expression (2^-ΔΔCt vs control) ([2]; 0.64 nM): 1.115 | Mean FOXM1B/C relative mRNA expression (2^-ΔΔCt vs control) ([2]; 3.2 nM): 1.032 | Mean FOXM1B/C relative mRNA expression (2^-ΔΔCt vs control) ([2]; 16 nM): 0.898 | Mean FOXM1B/C relative mRNA expression (2^-ΔΔCt vs control) ([2]; 80 nM): 0.748 | Mean FOXM1B/C relative mRNA expression (2^-ΔΔCt vs control) ([2]; 400 nM): 0.178 | Mean FOXM1B/C relative mRNA expression (2^-ΔΔCt vs control) ([2]; 2000 nM): 0.185 | Mean FOXM1B/C relative mRNA expression (2^-ΔΔCt vs control) ([2]; 10000 nM): 0.102 | IC50 ([2]; iPSC, read-out: IC50 on expression levels of FOXM1B/C): 114 nM | mRNA isoform specific qPCR of MADD gene transcript [3]: secondary pharmacological response
